In patent publication US20230265068A1, “TRANSIENT RECEPTOR POTENTIAL CANONICAL 3 INHIBITORS AND METHODS OF USE THEREOF” (University of Tennessee Research Foundation, priority 2020, published 2023):

What was measured:
[1] = maximum tolerated dose / in vivo toxicity study in mice; conditions: 200 mg/kg/day IP for five consecutive days
Procedure: The in vivo study was performed in compliance with the NIH Animal Use Guidelines and protocol approved by the Institutional Animal Care and Use Committee (IACUC) at the University of Tennessee Health Science Center (UTHSC, Memphis, Tenn.). NSG mice at 8 weeks (n=2) and ICR mice at 12 weeks (n=3) were housed with a 12:12-hour light-dark cycle and fed a breeder chow diet. Daily IP injections of 200 mg/kg of compounds 22 or 79 were administered for five consecutive injections in five mice, respectively, which were followed to monitor the mortality rate. Body weights of the mice were recorded daily.
The metabolic stability of compound 22 was tested prior to the next phase of in vivo study. […] The maximum tolerated dose (MTD) study was subsequently performed to investigate its in vivo toxicity (FIGS. 4A and 4B). The second major limitation of Pyr3 is its toxicity due to its alkylating tail moiety. While replacing only the fast-metabolizing head ester group in Pyr3 with a stable amide (compound 79) improved metabolic stability, a single IP injection of compound 79 at 200 mg/kg killed all mice within 24 h.
Compound 79 is a metabolically stable version of Pyr3. Mice treated daily with compound 22 or compound 79 (n=5) for 5 consecutive days. All the mice were treated with either compound 22 or 79 at 200 mg/kg (IP). […]

[2] = brain permeability and half-life after systemic administration in C57BL/6 mice; assay type: in vivo
Procedure: The brain permeability of compound 22 was evaluated with systemic administration (20 mg/kg, i.v.) in C57BL/6 mice. Blood samples were collected at nine time points after compound administration: 5 min, 15 min, 30 min, 1 hr, 2 hr, 4 hr, 8 hr, 16 hr, and 24 hr. Brain homogenates were then extracted and analyzed for concentrations of compound 22 by liquid chromatography-mass spectrometry (LC-MS). The half-life (T½) in the brain was calculated by GraphPad Prism software.

Compound: CCNC(=O)c1cnn(-c2ccc(-n3ccc(Cl)c(Cl)c3=O)cc2)c1C(F)(F)F [Compound 22]
- acute toxicities / body weight loss [1]: no acute toxicities or body weight loss
- Kp at 1 h ([2]; C57BL/6, mouse, brain/plasma, iv, 20 mg/kg, i.v., 1 h after injection, read-out: brain-to-plasma ratio): ~0.15
- half-life ([2]; C57BL/6, mouse, plasma, iv, 20 mg/kg, i.v., read-out: plasma T½ (converted)): ~4 h
- duration of brain concentration above TRPC3 IC50 ([2]; one-dose injection): 18 to 20 h
